The experiment deals with Signal transducer and activator of transcription 3 (Homo sapiens, UniProt P40763). The experiment in a line: Inhibition of STAT3 in human HeLa cells by luciferase reporter assay. (In general: A reporter such as luciferase makes a cellular process visible.)

The term pEC50 denotes the EC50 on a negative log10 scale, so that one unit is a factor of ten.

pEC50: −log10 of the molar value.

Chain of Signal transducer and activator of transcription 3 (P40763 whole entry): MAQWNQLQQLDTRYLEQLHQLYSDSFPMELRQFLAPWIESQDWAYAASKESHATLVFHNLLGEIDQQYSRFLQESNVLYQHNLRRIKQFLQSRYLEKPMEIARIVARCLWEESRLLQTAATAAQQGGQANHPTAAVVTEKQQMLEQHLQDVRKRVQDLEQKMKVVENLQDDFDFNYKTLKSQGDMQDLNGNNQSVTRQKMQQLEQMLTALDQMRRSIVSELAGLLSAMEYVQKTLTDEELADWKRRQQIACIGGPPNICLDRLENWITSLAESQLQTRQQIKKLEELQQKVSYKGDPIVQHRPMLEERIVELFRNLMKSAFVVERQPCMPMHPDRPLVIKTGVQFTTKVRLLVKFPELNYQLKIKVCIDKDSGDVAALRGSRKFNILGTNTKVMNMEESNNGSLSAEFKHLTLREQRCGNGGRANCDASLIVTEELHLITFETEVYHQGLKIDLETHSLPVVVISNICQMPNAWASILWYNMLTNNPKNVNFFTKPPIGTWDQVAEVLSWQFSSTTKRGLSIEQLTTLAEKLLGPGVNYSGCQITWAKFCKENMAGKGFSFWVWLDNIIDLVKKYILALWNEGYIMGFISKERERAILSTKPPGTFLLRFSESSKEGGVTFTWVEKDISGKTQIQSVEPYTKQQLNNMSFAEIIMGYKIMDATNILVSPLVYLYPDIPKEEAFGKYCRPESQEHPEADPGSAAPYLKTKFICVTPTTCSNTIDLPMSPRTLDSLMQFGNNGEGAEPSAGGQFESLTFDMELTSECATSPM

For the compound `Cc1ccc(-c2sc(C(=O)NCc3cccs3)cc2S(=O)(=O)N2CCCC2)cc1` [4-(pyrrolidin-1-ylsulfonyl)-N-(thiophen-2-ylmethyl)-5-p-tolylthiophene-2-carboxamide], the pEC50 was 4.82.

For the origin of these results see BindingDB's records for doi:10.1016/j.bmcl.2010.09.117 (University of London, 2010).
